As usually defined, the Kd is the equilibrium constant for the complex coming apart.

Molecules are shown by their SMILES.

Consider 2 compounds from patent publication US20040147788A1, “Stilbene derivatives and their use as aryl hydrocarbon receptor antagonistic ligands” (priority 2002, published 2004).

In data set [1] the target is T1, ER (Homo sapiens, UniProt P03372).
T1 construct: stably transfecting MCF-7 cells with the ERE-globin-tk-luc-SV-Neo plasmid; endogenous in cells; host or cells: MCF-7-Luc (MCF-7 stably transfected with ERE-globin-tk-luc-SV-Neo)
T1 sequence (P03372 1-595): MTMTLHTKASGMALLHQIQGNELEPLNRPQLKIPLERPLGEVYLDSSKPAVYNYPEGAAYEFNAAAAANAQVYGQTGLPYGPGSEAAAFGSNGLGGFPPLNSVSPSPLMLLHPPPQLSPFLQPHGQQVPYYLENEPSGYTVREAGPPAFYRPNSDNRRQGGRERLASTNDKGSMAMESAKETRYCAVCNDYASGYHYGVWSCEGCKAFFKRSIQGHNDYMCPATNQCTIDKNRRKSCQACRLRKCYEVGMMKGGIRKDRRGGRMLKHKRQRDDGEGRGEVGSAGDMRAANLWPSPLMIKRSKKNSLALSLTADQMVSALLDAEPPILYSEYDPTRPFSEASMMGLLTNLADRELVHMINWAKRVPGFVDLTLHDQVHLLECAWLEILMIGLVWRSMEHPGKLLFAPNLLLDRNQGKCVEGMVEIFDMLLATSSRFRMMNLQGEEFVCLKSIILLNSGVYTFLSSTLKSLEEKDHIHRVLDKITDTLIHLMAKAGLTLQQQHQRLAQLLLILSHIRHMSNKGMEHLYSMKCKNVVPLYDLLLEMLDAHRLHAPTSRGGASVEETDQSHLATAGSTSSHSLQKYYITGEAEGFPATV
Briefly: ER-mediated transactivation, ERE-driven Luciferase reporter stable cell line (MCF-7-Luc). Also: key: Ago: agonist; N.M.: not measurable. Particulars: trans-stilbenes. The data set is classed as cell-based. The method, then:
The human adenocarcinoma breast cell line MCF-7 was obtained from the American Tissue Culture Collection (Rockville, USA). The cells were established by stably transfecting MCF-7 cells with the ERE-globin-tk-luc-SV-Neo plasmid and thus expressed luciferase in an estrogen dependent manner MCF-7-Luc. […] Cells were incubated at 37° C. in a humidified 5% CO2 incubator. For experiments, cells were grown for 5 days in phenol red-free medium, containing 5% dextran-coated charcoal treated FCS (DCC-FCS). Medium was changed after 2 days. At day 5, cells were treated or not with compounds. Compounds were dissolved in ethanol.
For each condition, 15.103 cells were seeded per well in 12-well plates and treated, as described above, during 16 hours in a final volume of 0.5 mL. At the end of the treatment, cells were washed with PBS and lysed in 150 μl of lysis buffer (Promega, Charbonnieres, France). Luciferase activity was measured using the luciferase assay reagent (Promega), according to the manufacturer's instructions. Protein concentrations were measured using Bradford technique, to normalize the luciferase activity data. For each condition, average luciferase activity was calculated from the data of 3 independent wells.
For orientation: A reporter such as luciferase makes a cellular process visible.

The test system of data set [2] is A549 cell line. In words: Cytotoxicity, MTT colorimetric assay. In kind it is cell-based, human. The method, then: Cytotoxicity was evaluated on the A549 cell line. […] A MTT colorimetric assay was employed as described in (5) according to the established procedure 1. Drug stock solutions were prepared in EtOH and the final solvent concentration was=1% EtOH(v/v), a concentration without effect on cell replication. […] Cells were cultured at 37° C. in RPMI-1640 medium with streptomycin/penicillin and 5% (v/v) FCS in a humidified atmosphere containing 5% CO2. Initial seeding densities varied among the cell lines to ensure a final absorbance reading in control cultures in the range of 0.7-1 […] units. After the addition of the samples to the cell culture, the cells were incubated for 5 days before the MTT reagent was added. Each test was performed in duplicate and absorbance readings varied no more than 5%.

The subject of data set [3] is CYP1A1/AHH. Particulars: read-out: ED50 for induction of CYP1A1/AHH; porcine aortic endothelial; cited from earlier work.
For data set [4], the target named is T2, AhR (Homo sapiens, UniProt P35869).
T2 sequence (P35869 11-848): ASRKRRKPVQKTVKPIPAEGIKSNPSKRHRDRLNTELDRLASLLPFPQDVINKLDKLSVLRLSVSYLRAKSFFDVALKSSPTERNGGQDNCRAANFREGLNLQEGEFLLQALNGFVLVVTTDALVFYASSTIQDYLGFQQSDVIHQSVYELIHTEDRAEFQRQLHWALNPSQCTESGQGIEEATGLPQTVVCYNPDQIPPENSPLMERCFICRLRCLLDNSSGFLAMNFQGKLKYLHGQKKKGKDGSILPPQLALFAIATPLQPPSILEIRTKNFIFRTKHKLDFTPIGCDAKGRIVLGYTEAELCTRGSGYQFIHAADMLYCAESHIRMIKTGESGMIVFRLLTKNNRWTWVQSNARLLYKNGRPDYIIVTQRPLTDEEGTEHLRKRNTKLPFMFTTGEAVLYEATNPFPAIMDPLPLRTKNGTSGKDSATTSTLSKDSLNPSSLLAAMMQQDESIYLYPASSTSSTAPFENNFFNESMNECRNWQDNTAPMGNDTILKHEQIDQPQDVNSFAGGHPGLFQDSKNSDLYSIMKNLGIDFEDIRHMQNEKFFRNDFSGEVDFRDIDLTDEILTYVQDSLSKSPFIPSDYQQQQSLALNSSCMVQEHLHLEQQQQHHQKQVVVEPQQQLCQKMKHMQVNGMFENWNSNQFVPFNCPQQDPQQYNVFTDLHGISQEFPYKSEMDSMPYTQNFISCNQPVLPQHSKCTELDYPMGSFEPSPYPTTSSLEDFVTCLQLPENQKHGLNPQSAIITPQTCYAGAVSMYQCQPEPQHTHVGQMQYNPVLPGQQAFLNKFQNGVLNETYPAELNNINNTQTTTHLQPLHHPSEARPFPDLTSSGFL
Particulars: in humans; cited from earlier work.

Turning to `Oc1ccc(C=Cc2cc(O)cc(O)c2)cc1` [Resveratrol, 3,5,4′-trihydroxystilbene, reference compound], the “ER T.A. (transcriptional activity)” value in data set [1] is recorded as “Ago”. Further, in data set [2], the “cytotoxicity: not toxic up to concentration” value was over 10 µM.
On to `Clc1cc2c(cc1Cl)Oc1cc(Cl)c(Cl)cc1O2` [TCDD, 2,3,7,8-tetrachlorodibenzo-p-dioxin], for which the EC50 in data set [3] was 0.015 nM. In addition, the Kd in data set [4] was 1 nM.
